Results as given in the supplement of paper PMC12613149.

Tests used:
[1] = collision cross section (TIMS, N2 drift gas) of the primary ion; higher = larger gas-phase ion size
[2] = reversed-phase LC retention time (C18, 15 min MeOH gradient); higher = more hydrophobic / later elution
[3] = ionization mode: ESI-, ion species: [M-H]-
[4] = ionization mode: ESI+, ion species: [M]+
[5] = ionization mode: ESI+, ion species: [M+H]+

Structure (SMILES) | collision cross section [1, 3] | reversed-phase LC retention time [2, 3] | collision cross section [1, 4] | reversed-phase LC retention time [2, 4] | collision cross section [1, 5] | reversed-phase LC retention time [2, 5]
C[C@H]1C[C@H]2[C@@H]3CCC4=CC(=O)C=C[C@]4(C)[C@@]3(F)[C@@H](O)C[C@]2(C)[C@@]1(O)C(=O)CCl [Clobetasol] | 194.82 Å² | 14.4 min | – | – | – | –
CCCC[N+]1(C)[C@H]2CC(OC(=O)C(CO)c3ccccc3)C[C@H]1[C@H]1O[C@H]12 (some centres undefined) [Scopolamine-N-butyl] | – | – | 188.31 Å² | 9.85 min | – | –
NC(=O)c1c(Cl)cccc1Cl [2,6-Dichlorobenzamide] | – | – | – | – | 133.04 Å² | 7.49 min
O=C(NC1CCCCC1)NC1CCCCC1 [Dicyclohexylurea] | 163.68 Å² | 14.3 min | – | – | 160.65 Å² | 13.9 min
CNC(=O)/C(=N/OC)c1ccccc1COc1cc(C)ccc1C [Dimoxystrobin] | – | – | – | – | 178.04 Å² | 15.3 min
COC(=O)N(OC)c1ccccc1COc1ccn(-c2ccc(Cl)cc2)n1 [Pyraclostrobin] | – | – | – | – | 184.99 Å² | 15.8 min
CC(=O)C1(O)CCC2C3CCC4=CC(=O)CCC4(C)C3CCC21C (stereo not drawn) [17alpha-Hydroxyprogesterone] | 185.03 Å² | 14.8 min | – | – | 183.52 Å² | 14.5 min
CC(=O)O[C@]1(C(C)=O)CC[C@H]2[C@@H]3C[C@H](C)C4=CC(=O)CC[C@]4(C)[C@H]3CC[C@@]21C [Medroxyprogesteroneacetate] | – | – | – | – | 199.59 Å² | 15.4 min
CC(C)OC(=O)Nc1cccc(Cl)c1 [Chlorpropham] | 147.2 Å² | 14.7 min | – | – | – | –
CCCCCCOc1ccc(-c2nc(-c3ccccc3)nc(-c3ccccc3)n2)c(O)c1 [2-(4,6-Diphenyl-1,3,5-triazine-2-yl)-5-(hexyloxy)-phenol] | – | – | – | – | 221.42 Å² | 21.2 min
COc1ccc2nc(SCc3ncc(C)c(OC)c3C)[nH]c2c1 [Omeprazole sulfide] | 181.72 Å² | 13.9 min | – | – | 179.62 Å² | 11.2 min
Oc1cc(Cl)ccc1Oc1ccc(Cl)cc1 [Diclosan] | 152.57 Å² | 16.2 min | – | – | – | –
CCc1cccc(C)c1NC(=O)CS(=O)(=O)O | 155.17 Å² | 8.58 min | – | – | 157.12 Å² | 8.83 min
CC(Oc1ccc(Oc2nc3ccc(Cl)cc3o2)cc1)C(=O)O (centres undefined) [Fenoxaprop-P] | 189.16 Å² | 13.9 min | – | – | 181.01 Å² | 15.3 min
O=S(=O)(O)NC1CCCCC1 [Cyclamate] | 138.05 Å² | 6.16 min | – | – | – | –
Cc1nn(C)c(Oc2ccccc2)c1/C=N/OCc1ccc(C(=O)OC(C)(C)C)cc1 [Fenpyroximate] | – | – | – | – | 203.95 Å² | 17.5 min
OC(Cc1ccccc1Cl)(Cn1cncn1)C1(Cl)CC1 (centres undefined) [Prothioconazole-desthio] | – | – | – | – | 168.06 Å² | 14.9 min
CCN1CCCC1=O [1-Ethyl-2-pyrrolidinone] | – | – | – | – | 120.11 Å² | 6.97 min
Cc1ccc(S(N)(=O)=O)cc1 [p-Toluenesulfonamide] | 134.47 Å² | 8.4 min | – | – | – | –
Oc1c(Cl)cc(-c2ccc(Cl)cc2)cc1Cl [4-Hydroxy-3,4',5-trichlorobiphenyl] | 154.17 Å² | 15.5 min | – | – | – | –
C[C@]12CCC3=C4CCC(=O)C=C4CC[C@H]3[C@@H]1CC[C@@]2(O)CC#N [Dienogest] | – | – | – | – | 175.13 Å² | 12.6 min
NS(=O)(=O)c1cc(C(=O)O)c(NCc2ccco2)cc1Cl [Furosemide] | 172.55 Å² | 9.47 min | – | – | 161.99 Å² | 14.3 min
O=C1Nc2ccc(Cl)cc2C(c2ccccc2Cl)=NC1O (centres undefined) [Lorazepam] | 167.96 Å² | 13.5 min | – | – | 168.84 Å² | 13.2 min
O=C(O)C(F)(F)C(F)(F)C(F)(F)C(F)(F)C(F)(F)C(F)(F)F [Perfluoroheptanoic acid] | 146.98 Å² | 13.8 min | – | – | – | –
CCCNCCOc1c(Cl)cc(Cl)cc1Cl | – | – | – | – | 162.11 Å² | 12.1 min
CCCCCCCCCCCCCC[N+](C)(C)Cc1ccccc1 [Benzyldimethyltetradecylammonium] | – | – | 204.79 Å² | 17 min | – | –
COC(=O)c1cc(C(=O)OC)cc(S(=O)(=O)O)c1 [Dimethyl-5-sulfoisophthalate] | 162.37 Å² | 8.33 min | – | – | – | –
CCOC(=O)[C@H](CCc1ccccc1)N[C@@H](C)C(=O)N1CCC[C@H]1C(=O)O [Enalapril] | 193.85 Å² | 12.2 min | – | – | 187.31 Å² | 11.6 min
CCN1CCN(c2cc3c(cc2F)c(=O)c(C(=O)O)cn3C2CC2)CC1 [Enrofloxacin] | – | – | – | – | 186.48 Å² | 8.4 min
